Measured values: patent publication US6117869A, “Compounds for and methods of inhibiting matrix metalloproteinases” (Warner-Lambert Company, priority 1999, dated 2000)

Key:
[1] = tested on: human ovarian carcinoma xenografts; conditions: mice bearing human ovarian carcinoma xenografts; cited from earlier work
[2] = biological target: T1, MMP-1 (Homo sapiens, UniProt P03956); test: Thiopeptolide assay, MMP-1; type: biochemical; conditions: full-length enzyme, 5 nM; pH 7.0; 100 μM thiopeptolide substrate
T1 construct: purchased Washington University School of Medicine, St. Louis, Mo
T1 sequence (P03956 100-469): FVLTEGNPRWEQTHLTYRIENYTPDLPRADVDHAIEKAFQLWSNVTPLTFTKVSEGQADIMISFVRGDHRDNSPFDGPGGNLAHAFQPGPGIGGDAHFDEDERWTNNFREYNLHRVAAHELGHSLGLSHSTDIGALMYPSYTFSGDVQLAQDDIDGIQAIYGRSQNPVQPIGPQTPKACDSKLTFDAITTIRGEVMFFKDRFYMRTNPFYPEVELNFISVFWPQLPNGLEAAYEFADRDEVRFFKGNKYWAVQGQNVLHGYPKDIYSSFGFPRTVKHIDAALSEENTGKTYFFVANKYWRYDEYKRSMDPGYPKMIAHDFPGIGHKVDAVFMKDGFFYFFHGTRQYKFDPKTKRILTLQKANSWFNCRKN
Description: (§1) IC50 values were determined using a thiopeptolide substrate, Ac-Pro-Leu-Gly-thioester-Leu-Leu-Gly-OEt (Ye Q. Z., Johnson L. L., Hupe D. J., and Baragi V., "Purification and Characterization of the Human Stromelysin Catalytic Domain Expressed in Escherichia coli," Biochemistry,1992;31:11231-11235). MMP-1, MMP-7, and MMP-13 activity was assayed in a method similar to MMP-2 and MMP-3 (SCD and GCD). MMP-1 can be obtained from Washington University School of Medicine, St. Louis, Mo. MMP-7 can be obtained in accordance with the known procedure set forth by Ye Q. Z., Johnson L. L., and Baragi V., "Gene Syntheses and Expression in E. coli for PUMP, a Human Matrix Metalloproteinase," Biochem. and Biophys. Res. Comm., 1992;186:143-149. MMP13 can be obtained in accordance with the known procedure set forth by Freije J. M. P. et al., "Molecular Cloning and Expression of Collegenase-3, a Novel Human Matrix Metalloproteinase Produced by Breast Carcinomas," J. Bio. Chem., 1994;269:16766-16773.
(§2) Hydrolysis of the thiopeptolide substrate Ac-Pro-Leu-Gly-thioester-Leu-Leu-Gly-OEt (Bachem) is used as the primary screen to determine IC50 values for MMP inhibitors. A 100 μL reaction contains 1 mM 5,5'-dithiobis(2-nitrobenzoic acid) (DTNB), 100 μM substrate, 0.1% BRIJ® 35, PROTEIN GRADE®, Detergent, 10% solution, Sigma, St. Louis, Mo. [polyoxyethyleneglycol dodecyl ether; polyoxyethylene (23) lauryl ether], enzyme, and inhibitor in the appropriate reaction buffer. Activated full-length enzymes are assayed at 5 nM, Stromelysin Catalytic Domain (SCD) at 10 nM, and Gelatinase A Catalytic Domain (GaCD) at 1 nM. Inhibitors are screened from 100 μM to 1 nM. Full-length enzymes (MMP-1 and MMP-7) are assayed in 50 mM HEPES, 10 mM CaCl2, pH 7.0; SCD in 50 mM MES, 10 mM CaCl2, pH 6.0; and GaCD in 50 mM MOPS, 10 mM CaCl2, 10 μM ZnCl2, pH 7.0. The change in absorbance at 405 nm is monitored on a ThermoMax microplate reader at room temperature continuously for 20 minutes.

[3] = biological target: T2, MMP-3CD (Homo sapiens, UniProt P08254); test: Thiopeptolide assay, stromelysin-1 catalytic domain (SCD); type: biochemical; conditions: 10 nM, pH 6.0, 100 μM thiopeptolide substrate
T2 construct: Stromelysin Catalytic Domain (SCD) at 10 nM; made in house; host or cells: Escherichia coli
Description: as §1, §2

[4] = biological target: T3, MMP-7 (Homo sapiens, UniProt P09237); test: Thiopeptolide assay, MMP-7; type: biochemical; conditions: full-length enzyme, 5 nM; pH 7.0; 100 μM thiopeptolide substrate
T3 construct: made in house; host or cells: E. coli
T3 sequence (P09237 95-267): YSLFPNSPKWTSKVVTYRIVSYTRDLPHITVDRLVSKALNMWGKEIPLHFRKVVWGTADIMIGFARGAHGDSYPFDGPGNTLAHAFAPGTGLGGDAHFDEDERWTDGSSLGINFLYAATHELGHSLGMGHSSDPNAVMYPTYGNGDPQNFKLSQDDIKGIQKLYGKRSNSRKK
Description: as §1, §2

[5] = tested on: MMP-14CD; test: Thiopeptolide assay, MMP-14CD; type: biochemical; conditions: catalytic domain; thiopeptolide substrate
Description: as §1, §2

[6] = biological target: MMP-9 (Homo sapiens, UniProt P14780); test: Thiopeptolide assay, MMP-9; type: biochemical; conditions: thiopeptolide substrate
Description: [The source words this procedure for another target and reports this target under the same test.] as §1, §2

[7] = tested on: MMP-13CD; test: Thiopeptolide assay, MMP-13CD; type: biochemical, Human; conditions: catalytic domain; thiopeptolide substrate
Description: as §1, §2

[8] = biological target: MMP-2CD; test: Thiopeptolide assay, gelatinase A catalytic domain (GCD/GaCD); type: biochemical; conditions: 1 nM, pH 7.0, 100 μM thiopeptolide substrate
Description: as §1, §2

[9] = tested on: experimental allergic encephalomyelitis (EAE); conditions: dose dependent; cited from earlier work
[10] = tested on: bovine nasal cartilage; conditions: cited from earlier work
[11] = tested on: pig articular cartilage; conditions: cited from earlier work

Chain of MMP-9 (P14780 94-707): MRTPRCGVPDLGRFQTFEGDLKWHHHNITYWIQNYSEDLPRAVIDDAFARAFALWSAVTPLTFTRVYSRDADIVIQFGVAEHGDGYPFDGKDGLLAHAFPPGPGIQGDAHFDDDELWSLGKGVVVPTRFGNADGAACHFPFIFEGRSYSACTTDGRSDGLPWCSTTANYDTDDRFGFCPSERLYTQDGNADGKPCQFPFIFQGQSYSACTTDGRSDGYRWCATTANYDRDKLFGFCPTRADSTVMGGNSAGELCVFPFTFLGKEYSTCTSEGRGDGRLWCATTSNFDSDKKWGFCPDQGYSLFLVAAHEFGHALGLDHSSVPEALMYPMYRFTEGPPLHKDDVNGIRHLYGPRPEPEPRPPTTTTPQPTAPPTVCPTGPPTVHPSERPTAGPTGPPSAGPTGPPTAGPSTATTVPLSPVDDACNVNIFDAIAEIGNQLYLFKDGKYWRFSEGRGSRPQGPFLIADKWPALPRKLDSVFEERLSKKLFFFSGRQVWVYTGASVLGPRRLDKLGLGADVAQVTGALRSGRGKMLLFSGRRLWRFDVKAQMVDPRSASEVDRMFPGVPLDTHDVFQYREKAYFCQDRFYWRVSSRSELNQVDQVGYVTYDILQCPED
T2 sequence (P08254 100-272 limits assumed): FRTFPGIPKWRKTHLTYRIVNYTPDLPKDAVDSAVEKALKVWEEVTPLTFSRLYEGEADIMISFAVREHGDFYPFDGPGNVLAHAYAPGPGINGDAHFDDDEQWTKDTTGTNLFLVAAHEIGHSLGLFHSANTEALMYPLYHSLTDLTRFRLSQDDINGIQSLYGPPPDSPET

Row | IC50 [2] | IC50 [3] | IC50 [4] | IC50 [5] | IC50 [6] | IC50 [7] | IC50 [8] | Molecule | survival [1] | tumor burden [1] | development or clinical expression of EAE [9] | formation of collagen and proteoglycan fragments [10] | formation of collagen and proteoglycan fragments [11]
1 |  |  |  |  |  |  |  | CNC(=O)[C@H](Cc1ccccc1)NC(=O)[C@H](CC(C)C)[C@H](CSc1cccs1)C(=O)NO [BB-94] | prolonged the survival | decreased the tumor burden |  |  | 
2 | > 100 µM | 0.35 µM | 91 µM | 0.5 µM | > 100 µM | 8.7 µM | 0.17 µM | O=C(O)[C@H](Cc1ccccc1)NS(=O)(=O)c1ccc2c(c1)Sc1ccccc1O2 [Example 12, (S)-2-(Phenoxathiine-2-sulfonylamino)-3-phenyl-propionic acid] |  |  |  |  | 
3 | > 100 µM | 4.65 µM | 66 µM | 7.4 µM | > 100 µM | 36 µM | 3.2 µM | O=C(O)[C@H](CSC(c1ccccc1)(c1ccccc1)c1ccccc1)NS(=O)(=O)c1ccc2c(c1)Sc1ccccc1O2 [Example 13, (R)-2-(Phenoxathiine-2-sulfonylamino)-3-tritylsulfanyl-propionic acid] |  |  |  |  | 
4 | 87 µM | 0.12 µM | 17 µM | 0.2 µM | 18 µM | 2.3 µM | 0.09 µM | O=C(O)[C@H](Cc1ccc(O)cc1)NS(=O)(=O)c1ccc2c(c1)Sc1ccccc1O2 [Example 14, (S)-3-(4-Hydroxy-phenyl)-2-(phenoxathiine-2-sulfonylamino)-propionic acid] |  |  |  |  | 
5 | > 100 µM | 0.86 µM | 54 µM | 3.8 µM | > 100 µM | 16 µM | 0.91 µM | O=C(O)[C@H](Cc1c[nH]c2ccccc12)NS(=O)(=O)c1ccc2c(c1)Sc1ccccc1O2 [Example 15, (S)-3-(1H-Indol-3-yl)-2-(phenoxathiine-2-sulfonylamino)-propionic acid] |  |  |  |  | 
6 | > 100 µM | 0.41 µM | 14 µM | 1.55 µM | 53 µM | 4.4 µM | 0.113 µM | NC(=O)C[C@H](NS(=O)(=O)c1ccc2c(c1)Sc1ccccc1O2)C(=O)O [Example 16, (S)-2-(Phenoxathiine-2-sulfonylamino)-succinamic acid] |  |  |  |  | 
7 | > 100 µM | 2 µM | > 100 µM | 0.94 µM | > 100 µM | 12 µM | 0.15 µM | O=C(O)[C@@H](NS(=O)(=O)c1ccc2c(c1)Sc1ccccc1O2)c1ccccc1 [Example 17, (S)-(Phenoxathiine-2-sulfonylamino)-phenyl-acetic acid] |  |  |  |  | 
8 |  |  |  |  |  |  |  | CNC(=O)[C@H](Cc1c[nH]c2ccccc12)NC(=O)[C@@H](CC(=O)NO)CC(C)C [GM6001] |  |  | suppressed the development or reversed the clinical expression |  | 
9 |  |  |  |  |  |  |  | TIMP-1: tissue inhibitors of metalloproteinases |  |  |  | prevented the formation of collagen fragments, but not proteoglycan fragments | prevented the formation of collagen fragments, but not proteoglycan fragments
